Where a name gives a salt, the structure may show the parent alone. Read-outs that look alike come from different tables or passages of the source.
Columns and labels:
[1] = biological target: CDK2/Cyclin A (Homo sapiens, UniProt P24941); test: Inhibition of CDK2/Cyclin A Retinoblastoma Kinase Activity; assay type: biochemical; conditions: for Ki: apparent Ki, CDK2/proteolyzed cyclin A, Rb fragment substrate, 25 μM ATP; for CDK2 % Inhibition At 0.03 μM: Table 2
How it was run: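 Baculovirus-expressed CDK2 complexed with proteolyzed cyclin A (10 or 19 nM), Rb fragment substrate, 25 μM [32P/33P]ATP, HEPES pH 7.4, 30 °C for 60 or 75 min under initial-rate conditions. Filter capture and phosphorimager readout; apparent Ki fitted to competitive or tight-binding competitive inhibition.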

[2] = biological target: human CDK4 and genetically truncated (1-264) cyclin D3 (Homo sapiens, UniProt P11802); test: Inhibition of CDK4/Cyclin D Retinoblastoma Kinase Activity; assay type: biochemical; conditions: for Ki: apparent Ki, CDK4/truncated cyclin D3, Rb fragment substrate, 25 μM ATP
How it was run: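 Human CDK4/truncated cyclin D3 (1-264) complex from baculovirus-infected insect cells, 5 nM, phosphorylating Rb fragment (residues 386-928, His-tagged) with 25 μM [32/33P]ATP in HEPES pH 7.4, MgCl2, 2% DMSO at 30° C. for 20 min (60 min for tight binders). Filter-captured radioactivity by phosphorimager; apparent Ki from competitive or tight-binding fits.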

[3] = system: HCT-116 cell line; test: Inhibition of cell growth, tetrazolium salt (MTT) assay; assay type: cell-based; conditions: for IC50: Homo sapiens, HCT-116, 120 h, MTT, three to five days, read-out: HCT-116 IC50; for HCT-116 % Inhibition at 0.25 μM: 0.25 μM compound
How it was run: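 Growth inhibition by MTT reduction at 540 nm (0.2 mg/mL, 4 h at 37° C, formazan dissolved in DMSO), normalized to cells given only 0.5% v/v DMSO. HCT-116 cultures in McCoy's 5A were dosed 4 h post-plating and kept three to five days at 37° C, 5% CO2.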

[4] = 0.1 μM compound, HCT-116, Table 3
[5] = 0.1 μM compound, HCT-116, Table 4

Chain of human CDK4 and genetically truncated (1-264) cyclin D3 (P11802 whole entry, the tested form may be a part): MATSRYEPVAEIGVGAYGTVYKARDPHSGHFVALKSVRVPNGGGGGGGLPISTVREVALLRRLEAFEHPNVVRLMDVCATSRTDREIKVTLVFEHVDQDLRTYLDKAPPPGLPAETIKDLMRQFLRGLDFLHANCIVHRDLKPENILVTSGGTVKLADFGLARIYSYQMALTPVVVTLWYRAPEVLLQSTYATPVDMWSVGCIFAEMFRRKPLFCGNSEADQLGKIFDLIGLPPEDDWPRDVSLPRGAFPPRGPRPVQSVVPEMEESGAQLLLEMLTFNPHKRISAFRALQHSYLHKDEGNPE
Chain of human CDK4 and genetically truncated (1-264) cyclin D3 (P30281 1-264 partner): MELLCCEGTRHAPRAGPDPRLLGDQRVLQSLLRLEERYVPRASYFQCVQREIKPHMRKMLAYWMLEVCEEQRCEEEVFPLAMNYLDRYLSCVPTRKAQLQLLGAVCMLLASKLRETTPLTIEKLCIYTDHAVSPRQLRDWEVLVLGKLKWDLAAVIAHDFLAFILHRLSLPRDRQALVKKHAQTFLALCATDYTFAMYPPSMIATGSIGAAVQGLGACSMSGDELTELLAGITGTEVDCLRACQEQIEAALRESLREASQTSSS

`Nc1nc(NC2CCN(S(=O)(=O)CCn3cccc3)CC2)sc1C(=O)c1c(F)cccc1F` [Example K34, {4-Amino-2-[1-(2-pyrrol-1-yl-ethanesulfonyl)-piperidin-4-ylamino]-thiazol-5-yl}-(2,6-difluoro-phenyl)-methanone Trifluoroacetic Acid Salt.] showed a Ki [1] of 6 nM, a Ki [2] of 5.4 nM and an IC50 ([3]; first HCT-116 column (c4)) of 280 nM. The IC50 ([3]; second HCT-116 column (c5)) was 1200 nM.
`CS(=O)(=O)CS(=O)(=O)N1CCC(Nc2nc(N)c(C(=O)c3c(F)cccc3F)s2)CC1` [Example P53] was tested, and the “CDK2 % Inhibition at 0.03 μM” value ([1]; 0.03 μM compound, Table 3) was −23%, the “CDK4 % Inhibition at 0.03 μM” value ([2]; 0.03 μM compound, Table 3) was 16% and the “HCT-116 % Inhibition at 0.1 μM” value [3, 4] was 21%. The “HCT-116 % Inhibition at 0.25 μM” value ([3]; HCT-116, Table 3) was 27%.
For `Nc1nc(NC2CCN(S(=O)(=O)c3ccccc3)CC2)sc1C(=O)c1c(F)cccc1F` [Example P8], the “CDK2 % Inhibition at 0.03 μM” value ([1]; 0.03 μM compound, Table 3) was 73%, the “CDK4 % Inhibition at 0.03 μM” value ([2]; 0.03 μM compound, Table 3) was 72% and the “HCT-116 % Inhibition at 0.1 μM” value [3, 4] was 37%. For the same compound, the “HCT-116 % Inhibition at 0.25 μM” value ([3]; HCT-116, Table 3) was 33%.
In the case of `Nc1nc(NC2CCN(C(=O)c3cccc4c3-c3ccccc3C4=O)CC2)sc1C(=O)c1c(F)cccc1F` [Example Q74], the “CDK2 % Inhibition at 0.03 μM” value ([1]; 0.03 μM compound, Table 4) is reported as 2%, the “CDK4 % Inhibition at 0.03 μM” value ([2]; 0.03 μM compound, Table 4) is reported as 19% and the “HCT-116 % Inhibition at 0.1 μM” value [3, 5] is reported as 3%. The “HCT-116 % Inhibition at 0.25 μM” value ([3]; HCT-116, Table 4) was 35%.
For `Nc1nc(NC2CCN(C(=O)c3cccc(F)c3)CC2)sc1C(=O)c1c(F)cccc1F` [Example R130], the “CDK2 % Inhibition at 0.03 μM” value ([1]; at 0.03 μM) was 59%, the “CDK4 % Inhibition at 0.03 μM” value ([2]; at 0.03 μM) was 77% and the “HCT-116 % Inhibition at 0.1 μM” value ([3]; HCT-116 cells, at 0.1 μM) was 0%. The “HCT-116 5 Inhibition at 0.25 μM” value ([3]; HCT-116 cells) was 20.
With `Nc1nc(NC2CCN(C(=O)NCc3ccccc3)CC2)sc1C(=O)c1c(F)cccc1F` [Example O37] the “CDK2 % Inhibition At 0.03 μM” value ([1]; 0.03 μM compound) was 40%, the “CDK4 % Inhibition at 0.03 μM” value ([2]; 0.03 μM compound, Table 2) was 12% and the “HCT-116 % Inhibition at 0.25 μM” value ([3]; HCT-116, Table 2) was 34%.
In the case of `Nc1nc(NC2CCN(S(=O)(=O)c3ccc(Sc4ccncc4)cc3)CC2)sc1C(=O)c1c(F)cccc1F` [Example P87], the “CDK2 % Inhibition at 0.03 μM” value ([1]; 0.03 μM compound, Table 3) is reported as −25%, the “CDK4 % Inhibition at 0.03 μM” value ([2]; 0.03 μM compound, Table 3) is reported as −5% and the “HCT-116 % Inhibition at 0.1 μM” value [3, 4] is reported as 9%. For the same compound, the “HCT-116 % Inhibition at 0.25 μM” value ([3]; HCT-116, Table 3) was 22%.
`CN1CCN(c2ccc(S(=O)(=O)N3CCC(Nc4nc(N)c(C(=O)c5c(F)cccc5F)s4)CC3)cn2)CC1` [Example G5, 1-(4-Amino-2-{1-[6-(4-methyl-piperazin-1-yl)-pyridine-3-sulfonyl]-piperidin-4-ylamino}-thiazol-5-yl)-1-(2,6-difluoro-phenyl)-methanone] gave a Ki [1] of 1.3 nM, a Ki [2] of 1.3 nM and an IC50 ([3]; first HCT-116 column (c4)) of 29 nM. For the same compound, the IC50 ([3]; second HCT-116 column (c5)) was over 500 nM.
For `Cc1cccc(NC(=O)N2CCC(Nc3nc(N)c(C(=O)c4c(F)cccc4F)s3)CC2)c1` [Example O17], the “CDK2 % Inhibition At 0.03 μM” value ([1]; 0.03 μM compound) was 32%, the “CDK4 % Inhibition at 0.03 μM” value ([2]; 0.03 μM compound, Table 2) was 6% and the “HCT-116 % Inhibition at 0.25 μM” value ([3]; HCT-116, Table 2) was 8%.
For `COc1ccc(C)cc1S(=O)(=O)N1CCC(Nc2nc(N)c(C(=O)c3c(F)cccc3F)s2)CC1` [Example P59], the “CDK2 % Inhibition at 0.03 μM” value ([1]; 0.03 μM compound, Table 3) was 17%, the “CDK4 % Inhibition at 0.03 μM” value ([2]; 0.03 μM compound, Table 3) was 33% and the “HCT-116 % Inhibition at 0.1 μM” value [3, 4] was 19%. The “HCT-116 % Inhibition at 0.25 μM” value ([3]; HCT-116, Table 3) was 24%.
`CCCC(CCC)C(=O)N1CCC(Nc2nc(N)c(C(=O)c3c(F)cccc3F)s2)CC1` [Example R166] was tested, and the “CDK2 % Inhibition at 0.03 μM” value ([1]; at 0.03 μM) was 17%, the “CDK4 % Inhibition at 0.03 μM” value ([2]; at 0.03 μM) was 37% and the “HCT-116 % Inhibition at 0.1 μM” value ([3]; HCT-116 cells, at 0.1 μM) was 0%. The “HCT-116 5 Inhibition at 0.25 μM” value ([3]; HCT-116 cells) was 44.
In the case of `CCOC(=O)CCC(=O)N1CCC(Nc2nc(N)c(C(=O)c3c(F)cccc3F)s2)CC1` [Example Q50], the “CDK2 % Inhibition at 0.03 μM” value ([1]; 0.03 μM compound, Table 4) is reported as 24%, the “CDK4 % Inhibition at 0.03 μM” value ([2]; 0.03 μM compound, Table 4) is reported as 42% and the “HCT-116 % Inhibition at 0.1 μM” value [3, 5] is reported as 7%. The “HCT-116 % Inhibition at 0.25 μM” value ([3]; HCT-116, Table 4) was 39%.
`CCc1cc(Br)ccc1S(=O)(=O)N1CCC(Nc2nc(N)c(C(=O)c3c(F)cccc3F)s2)CC1` [Example P78] was tested, and the “CDK2 % Inhibition at 0.03 μM” value ([1]; 0.03 μM compound, Table 3) was 17%, the “CDK4 % Inhibition at 0.03 μM” value ([2]; 0.03 μM compound, Table 3) was 24% and the “HCT-116 % Inhibition at 0.1 μM” value [3, 4] was 27%. The “HCT-116 % Inhibition at 0.25 μM” value ([3]; HCT-116, Table 3) was 23%.

Source: patent US20050101595A1, “N-containing cycloalkyl-substituted amino-thiazole derivatives and pharmaceutical compositions for inhibiting cell proliferation and methods for their use” (PFIZER INC., priority 2003, published 2005)
